Assay results published in PubChem BioAssay (NCI).
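Test compounds were applied to cells in 96-well plates for 48 hours at 5 doses. Abbreviation: GI50, concentration required for 50% inhibition of growth. Definition used: TGI = concentration required for complete inhibition of growth.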

Assays:
Assay in all cases: growth of human tumour cells (NCI), 48 h
M14 melanoma = system: M14 melanoma
NCI-H226 lung = system: NCI-H226 lung
HT29 colon = system: HT29 colon
OVCAR-4 ovarian = system: OVCAR-4 ovarian
UO-31 renal = system: UO-31 renal
TK-10 renal = system: TK-10 renal
SK-OV-3 ovarian = system: SK-OV-3 ovarian
HCT-116 colon = system: HCT-116 colon
IGROV1 ovarian = system: IGROV1 ovarian
BT-549 breast = system: BT-549 breast

SMILES	TGI (M14 melanoma) [µM]	TGI (NCI-H226 lung) [µM]	TGI (HT29 colon) [µM]	TGI (OVCAR-4 ovarian) [µM]	TGI (UO-31 renal) [µM]	TGI (TK-10 renal) [µM]	TGI (SK-OV-3 ovarian) [µM]	TGI (HCT-116 colon) [µM]	TGI (IGROV1 ovarian) [µM]	GI50 (M14 melanoma) [µM]	GI50 (NCI-H226 lung) [µM]	GI50 (HT29 colon) [µM]	GI50 (OVCAR-4 ovarian) [µM]	GI50 (BT-549 breast) [µM]	TGI (BT-549 breast) [µM]	GI50 (UO-31 renal) [µM]	GI50 (IGROV1 ovarian) [µM]	GI50 (TK-10 renal) [µM]	GI50 (HCT-116 colon) [µM]	GI50 (SK-OV-3 ovarian) [µM]
Cc1cc(NS(=O)(=O)c2ccc(Nc3c4ccccc4nc4c(C(=O)Nc5ccc(S(=O)(=O)N=C(N)N)cc5)ccc(Cl)c34)cc2)no1	> 100	97.8	> 100	85.6	> 100	> 100	95.4	> 100	–	–	–	–	–	–	–	–	–	–	–	–
Brc1ccc(C2SCc3nc4ccccc4n32)cc1 (configuration not stated)	25.5	34.1	20.9	27.4	32	29.1	37.7	19.6	27.3	–	–	–	–	–	–	–	–	–	–	–
Clc1ccc(C2=NOC3C4CCC(C4)C23)cc1 (configuration not stated)	> 100	> 100	> 100	> 100	> 100	> 100	> 100	> 100	> 100	–	–	–	–	–	–	–	–	–	–	–
COc1cc2ccc(CC(N)=O)cc2cc1OC	> 100	> 100	> 100	> 100	> 100	> 100	> 100	> 100	> 100	–	–	–	–	–	–	–	–	–	–	–
CCCCCCCCCCCCCCNCC(OCC)OCC	27.5	37.6	11.4	28.6	22.9	32.7	32.8	23.1	30.3	–	–	–	–	–	–	–	–	–	–	–
Clc1cccc2c1OCC1C(c3ccccc3)=NN(c3ccccc3)C21 (configuration not stated)	–	–	> 100	–	> 100	> 100	> 100	> 100	> 100	–	–	–	–	–	–	–	–	–	–	–
O=S(=O)(NCCO)c1cc[c]([Sb](=[O])([OH])[OH])cc1	> 100	> 100	> 100	> 100	> 100	> 100	–	> 100	> 100	> 100	> 100	> 100	> 100	> 100	> 100	> 100	> 100	> 100	> 100	–
Cc1ccc2c(CC(=O)O)cc(=O)oc2c1	> 100	> 100	> 100	> 100	–	> 100	> 100	> 100	> 100	–	–	–	–	–	–	–	–	–	–	–
O=c1cc(O)c2c(O)cc(O)cc2o1	> 100	> 100	> 100	> 100	–	> 100	–	> 100	> 100	–	–	–	–	–	> 100	–	–	–	–	–
COc1ccc(C#CC2=C(c3cc(OC)c(OC)c(OC)c3)C(=O)OC2)cc1	> 50	27.1	> 50	> 50	> 50	> 50	–	> 50	> 50	> 50	7.88	2.66	1.51	2.13	15.7	18.9	13.9	1.77	1.8	–
C/C=C1\CCC2c3[nH]c4ccccc4c3CCN2C1 (configuration not stated)	75.8	> 100	> 100	> 100	> 100	> 100	> 100	> 100	> 100	–	–	–	–	–	–	–	–	–	–	–
Cc1ccc(C(=O)N=Nc2c(O)[nH]c3ccc(Cl)cc23)cc1	> 50	24.6	> 50	18	> 50	> 50	–	> 50	> 50	22.7	7.4	19.8	6.82	25	> 50	> 50	36.6	43.2	10.4	–
COC[C@@H](N=CN1CCc2cc(OC)c(OC)cc2C1)C(C)(C)C	> 100	> 100	> 100	> 100	> 100	> 100	> 100	> 100	> 100	–	–	–	–	–	–	–	–	–	–	–
COc1ccc2c(c1)CCN1C3=C(CCC3)C(=O)C[C@@H]21	> 100	> 100	> 100	> 100	> 100	> 100	> 100	> 100	> 100	–	–	–	–	–	–	–	–	–	–	–
CCCC#CCOC(=O)c1cc([N+](=O)[O-])cc([N+](=O)[O-])c1	> 100	–	> 100	–	> 100	> 100	> 100	> 100	> 100	–	–	–	–	–	> 100	–	–	–	–	–
COc1cc2c(cc1OC)[C@@H]([C@H](O)c1ccccc1)NCC2	> 100	> 100	> 100	> 100	> 100	> 100	> 100	> 100	> 100	–	–	–	–	–	–	–	–	–	–	–
Cc1cn2c(/C=N/N=C(N)N)c(-c3ccsc3)nc2s1	37.3	31.7	> 100	–	> 100	27.5	25.6	12.6	46.3	11.5	15.5	18.6	–	15	29.5	25.2	14.9	13.4	3.14	10.6
COc1ccc2[nH]c(O)c(/C=c3/ccc4c(c3)N=C(c3ccc(F)cc3)N=4)c2c1	11.1	6.33	16.8	–	5.01	7.12	6.06	3.37	17.9	2.66	2.5	3.62	–	1.75	4.75	1.95	3.27	3.01	1.63	2.62
O=C1CCC2(c3ccccc3)Nc3ccc(Cl)cc3N12 (configuration not stated)	> 100	> 100	> 100	> 100	> 100	> 100	> 100	–	> 100	–	–	–	–	–	–	–	–	–	–	–
CC/C(CC(=O)CCC(=O)Nc1ccc(C)c(C)c1)=N\NC(=O)C(N)=O	> 100	> 100	> 100	> 100	> 100	> 100	> 100	> 100	> 100	–	–	–	–	–	–	–	–	–	–	–
